Measurements as given in US8829007B2 (priority 2009, dated 2014).
Where a name gives a salt, the structure may show the parent alone. Read-outs that look alike come from different tables or passages of the source.

What was measured:
[1] = test system: influenza A virus (A/PR/8/34); experiment: microbe, parasite or virus in culture; assay type: cell-based
[2] = test system: A/PR/8/34 influenza virus; experiment: microbe, parasite or virus in culture; assay type: cell-based
[3] = Influenza A virus, PR/8, MDCK, CPE assay, A/PR/8/34 infected MDCK cells, class symbols, read-out: IC50 (mean all)
[4] = Influenza A virus, PR/8, MDCK, bDNA assay, A/PR/8/34 influenza virus replication in MDCK cells, class symbols, read-out: EC50 (mean all)
[5] = Influenza A virus, PR/8, MDCK, MDCK cells infected with A/PR/8/34, cell protection (CPE), read-out: IC50 (mean all)
[6] = Influenza A virus, PR/8, MDCK, MDCK cells infected with A/PR/8/34, bDNA viral RNA, read-out: EC50 (mean all)
[7] = Influenza A virus, PR/8, MDCK, MDCK cells, A/PR/8/34, ATP readout, mean all, read-out: Cell Flu, MDCK protection, ATP (All: IC50: uM)(Mean (All))
[8] = Influenza A virus, PR/8, 30 h, HA(−) 30 hr, A/PR/8, bDNA, mean all, read-out: Cell Influenza HA(−) 30 hr A/PR/8 bDNA:bDNA EC50 uM(Mean (All))
[9] = mean all, MDCK cells infected with A/PR/8/34, cell protection (CPE), read-out: IC50
[10] = mean all, bDNA viral RNA in MDCK cells infected with A/PR/8/34, read-out: EC50
[11] = Influenza A virus, PR/8, MDCK, MDCK cells infected with A/PR/8/34, survival of infected cells, class symbols, read-out: IC50 (mean all)
[12] = Influenza A virus, PR/8, MDCK, MDCK cells infected with A/PR/8/34, replication of influenza virus (viral RNA, bDNA), class symbols, read-out: EC50 (mean all)

O=C(Oc1ccccc1)N1CCC[C@H](CNc2nc(-c3c[nH]c4ncc(Cl)cc34)ncc2F)C1 [Compound 68, (R)-phenyl 3-((2-(5-chloro-1H-pyrrolo[2,3-b]pyridin-3-yl)-5-fluoropyrimidin-4-ylamino)methyl)piperidine-1-carboxylate]
IC50 ([1]; Influenza A virus, PR/8, MDCK, read-out: IC50 (mean all)): 5 to 20 µM
EC50 ([2]; Influenza A virus, PR/8, MDCK, read-out: EC50 (mean all)): < 5 µM

OC[C@H]1CC(Nc2nc(-c3c[nH]c4ncc(Cl)cc34)ncc2F)[C@H](O)[C@@H]1O (stereo partly shown) [Compound 657]
IC50 [1, 3]: > 10 µM
EC50 [2, 4]: > 3.3 µM

C=CCOC(=O)N1CCC[C@@H](CNc2nc(-c3c[nH]c4ncc(Cl)cc34)ncc2F)C1 [Compound 17, (S)-allyl 3-((2-(5-chloro-1H-pyrrolo[2,3-b]pyridin-3-yl)-5-fluoropyrimidin-4-ylamino)methyl)piperidine-1-carboxylate]
IC50 [1, 5]: 5 to 20 µM
EC50 [2, 6]: < 5 µM

CN(C)C(=O)N[C@H]1CCC[C@@H](Nc2nc(-c3c[nH]c4ncc(Cl)cc34)ncc2F)C1 (relative stereo) [Compound 456, 3-[cis-3-[[2-(5-chloro-1H-pyrrolo[2,3-b]pyridin-3-yl)-5-fluoro-pyrimidin-4-yl]amino]cyclohexyl]-1,1-dimethyl-urea]
IC50 ([1]; Influenza A virus, PR/8, MDCK, mean all, A/PR/8/34 infected MDCK cells, CPE assay, read-out: IC50): < 5 µM
EC50 ([2]; Influenza A virus, PR/8, MDCK, mean all, A/PR/8/34 influenza virus in MDCK cells, bDNA assay, read-out: EC50): < 5 µM

N=C(N)N[C@@H]1CCC[C@H](Nc2nc(-c3c[nH]c4ncc(F)cc34)ncc2F)C1 [Compound 1143, 1-((1R,3S)-3-(5-fluoro-2-(5-fluoro-1H-pyrrolo[2,3-b]pyridin-3-yl)pyrimidin-4-ylamino)cyclohexyl)guanidine]
IC50 [1, 7]: < 5 µM
EC50 [2, 8]: < 5 µM

O=C(c1cccc(C(F)(F)F)c1)N1CCCC[C@@H]1CNc1nc(-c2c[nH]c3ncc(Cl)cc23)ncc1F [Compound 210, (R)-(2-((2-(5-chloro-1H-pyrrolo[2,3-b]pyridin-3-yl)-5-fluoropyrimidin-4-ylamino)methyl)piperidin-1-yl)(3-(trifluoromethyl)phenyl)methanone]
IC50 [1, 5]: > 20 µM
EC50 [2, 6]: 5 to 10 µM

COc1ccc(C(=O)N2CCC[C@H](CNc3nc(-c4c[nH]c5ncc(Cl)cc45)ncc3F)C2)c(OC)c1 [Compound 154, (R)-(3-((2-(5-chloro-1H-pyrrolo[2,3-b]pyridin-3-yl)-5-fluoropyrimidin-4-ylamino)methyl)piperidin-1-yl)(2,4-dimethoxyphenyl)methanone]
IC50 [1, 5]: 5 to 20 µM
EC50 [2, 6]: < 5 µM

O=C(O)C1CCC(Nc2nc(-c3c[nH]c4ncc(Cl)cc34)ncc2F)CC1 (stereo not shown) [Compound 731]
IC50 [1, 9]: > 10 µM
EC50 [2, 10]: > 3.3 µM

CC(C)(C(N)=O)N1CCC[C@H](Nc2nc(-c3c[nH]c4ncc(Cl)cc34)ncc2F)C1 [Compound 598]
IC50 [1, 3]: < 5 µM
EC50 [2, 4]: < 5 µM

O=C(O)[C@@H]1CCC[C@H](Nc2nc(-c3c[nH]c4ncc(Cl)cc34)ncc2F)C1 [Compound 630]
IC50 [1, 3]: < 5 µM
EC50 [2, 4]: < 5 µM

O[C@@H]1CCCC[C@H]1Nc1nc(-c2c[nH]c3ncccc23)ncc1F (relative stereo) [Compound 207, Trans-2-[[5-fluoro-2-(1H-pyrrolo[2,3-b]pyridin-3-yl)pyrimidin-4-yl]amino]cyclohexanol]
IC50 [1, 5]: < 5 µM
EC50 [2, 6]: < 5 µM

O=C(Cc1cccs1)N1CCC[C@H](CNc2nc(-c3c[nH]c4ncc(Cl)cc34)ncc2F)C1 [Compound 104, (R)-1-(3-((2-(5-chloro-1H-pyrrolo[2,3-b]pyridin-3-yl)-5-fluoropyrimidin-4-ylamino)methyl)piperidin-1-yl)-2-(thiophen-2-yl)ethanone]
IC50 [1, 5]: < 5 µM
EC50 [2, 6]: < 5 µM

CC(O)CC(=O)N[C@@H]1CCC[C@H](Nc2nc(-c3c[nH]c4ncc(Cl)cc34)ncc2F)C1 (stereo partly drawn) [Compound 640, N-[(1R,3S)-3-[[2-(5-chloro-1H-pyrrolo[2,3-b]pyridin-3-yl)-5-fluoro-pyrimidin-4-yl]amino]cyclohexyl]-3-hydroxy-butanamide hydrochloride]
IC50 [1, 3]: < 5 µM
EC50 [2, 4]: < 5 µM

O=C(OCCF)N1CCC[C@H](CNc2nc(-c3c[nH]c4ncc(Cl)cc34)ncc2F)C1 [Compound 126, (R)-2-fluoroethyl 3-((2-(5-chloro-1H-pyrrolo[2,3-b]pyridin-3-yl)-5-fluoropyrimidin-4-ylamino)methyl)piperidine-1-carboxylate]
IC50 [1, 5]: < 5 µM
EC50 [2, 6]: < 5 µM

O=C(Nc1cccc(F)c1)N1CCC[C@H](CNc2nc(-c3c[nH]c4ncc(Cl)cc34)ncc2F)C1 [Compound 75, (R)-3-((2-(5-chloro-1H-pyrrolo[2,3-b]pyridin-3-yl)-5-fluoropyrimidin-4-ylamino)methyl)-N-(3-fluorophenyl)piperidine-1-carboxamide]
IC50 [1, 5]: < 5 µM
EC50 [2, 6]: < 5 µM

O=S(=O)(c1cccs1)N1CCCC(CNc2nc(-c3c[nH]c4ncc(Cl)cc34)ncc2F)C1 (stereo not shown) [Compound 89]
IC50 [1, 5]: < 5 µM
EC50 [2, 6]: < 5 µM

CC#CCOC(=O)NC1CCCC(Nc2nc(-c3c[nH]c4ncc(Cl)cc34)ncc2F)C1 (stereo not shown) [Compound 701]
IC50 [1, 9]: < 5 µM
EC50 [2, 10]: < 5 µM

C#CCCC(=O)N1CCC[C@@H](CNc2nc(-c3c[nH]c4ncc(Cl)cc34)ncc2F)C1 [Compound 52, (S)-1-(3-((2-(5-chloro-1H-pyrrolo[2,3-b]pyridin-3-yl)-5-fluoropyrimidin-4-ylamino)methyl)piperidin-1-yl)pent-4-yn-1-one]
IC50 [1, 5]: < 5 µM
EC50 [2, 6]: < 5 µM

CCOC(=O)N1CCOCC1CNc1nc(-c2c[nH]c3ncc(Cl)cc23)ncc1F (stereo not shown) [Compound 527, Ethyl 3-((2-(5-chloro-1H-pyrrolo[2,3-b]pyridin-3-yl)-5-fluoropyrimidin-4-ylamino)methyl)morpholine-4-carboxylate]
IC50 [1, 11]: > 20 µM
EC50 [2, 12]: > 10 µM

Cc1ccc(S(=O)(=O)n2cc(-c3ncc(F)c(N[C@H]4CCCC(C)(O)C4)n3)c3cc(Cl)cnc32)cc1 (stereo partly shown) [Compound 656]
IC50 ([1]; CPE assay, A/PR/8/34 infected MDCK cells, class symbols, read-out: IC50 (mean all)): < 5 µM
EC50 ([2]; bDNA assay, A/PR/8/34 influenza virus replication in MDCK cells, class symbols, read-out: EC50 (mean all)): < 5 µM

C[C@H]1C[C@@H](NC(=O)N2CC[C@H](F)C2)C[C@@H](Nc2nc(-c3c[nH]c4ncc(F)cc34)ncc2F)C1 [compound 1067]
IC50 [1, 7]: < 5 µM
EC50 [2, 8]: < 5 µM

CCNC(=O)C1CCCC(Nc2nc(-c3c[nH]c4ncc(Cl)cc34)ncc2F)C1O (stereo not shown) [Compound 815, 3-[[2-(5-chloro-1H-pyrrolo[2,3-b]pyridin-3-yl)-5-fluoro-pyrimidin-4-yl]amino]-N-ethyl-2-hydroxy-cyclohexanecarboxamide]
IC50 ([1]; Influenza A virus, PR/8, MDCK, mean all, A/PR/8/34 infected MDCK cells, cell protection (CPE), read-out: IC50): < 5 µM
EC50 ([2]; Influenza A virus, PR/8, mean all, A/PR/8/34 influenza virus replication, bDNA, read-out: EC50): < 5 µM

N[C@@H]1CCCC[C@H]1Nc1nc(-c2c[nH]c3ncc(Cl)cc23)ncc1C(F)(F)F [Compound 31, (1R,2R)—N1-(2-(5-chloro-1H-pyrrolo[2,3-b]pyridin-3-yl)-5-(trifluoromethyl)pyrimidin-4-yl)cyclohexane-1,2-diamine]
IC50 [1, 5]: < 5 µM
EC50 [2, 6]: < 5 µM

O=C(O)[C@H]1CC[C@@H](C(=O)N2CCC[C@H](CNc3nc(-c4c[nH]c5ncc(Cl)cc45)ncc3F)C2)C1 [Compound 55, (1S,3R)-3-((R)-3-((2-(5-chloro-1H-pyrrolo[2,3-b]pyridin-3-yl)-5-fluoropyrimidin-4-ylamino)methyl)piperidine-1-carbonyl)cyclopentanecarboxylic acid]
IC50 [1, 5]: < 5 µM
EC50 [2, 6]: < 5 µM

O[C@H]1[C@H](O)CCC[C@@H]1Nc1nc(-c2c[nH]c3ncc(Cl)cc23)ncc1F [Compound 625]
IC50 [1, 3]: < 5 µM
EC50 [2, 4]: < 5 µM

CNC(=O)[C@@H]1CCCC[C@@H]1Nc1nc(-c2c[nH]c3ncc(Cl)cc23)ncc1F (relative stereo) [Compound 539, Cis-2-(2-(5-chloro-1H-pyrrolo[2,3-b]pyridin-3-yl)-5-fluoropyrimidin-4-ylamino)-N-methylcyclohexanecarboxamide]
IC50 [1, 11]: 5 to 20 µM
EC50 [2, 12]: < 5 µM

CC1(O)CCC[C@H](Nc2nc(-c3c[nH]c4ncc(Cl)cc34)ncc2F)C1 (stereo partly shown) [Compound 571]
IC50 ([1]; MDCK cells infected with A/PR/8/34, survival of infected cells, class symbols, read-out: IC50 (mean all)): < 5 µM
EC50 ([2]; MDCK cells infected with A/PR/8/34, replication of influenza virus (viral RNA, bDNA), class symbols, read-out: EC50 (mean all)): < 5 µM

CC(=O)N1CCC[C@H](CNc2nc(-c3c[nH]c4ncc(Cl)cc34)ncc2F)C1 [Compound 111, (R)-1-(3-((2-(5-chloro-1H-pyrrolo[2,3-b]pyridin-3-yl)-5-fluoropyrimidin-4-ylamino)methyl)piperidin-1-yl)ethanone]
IC50 [1, 5]: < 5 µM
EC50 [2, 6]: < 5 µM

O=S(=O)(c1cccc(F)c1)N1CCC[C@H](CNc2nc(-c3c[nH]c4ncc(Cl)cc34)ncc2F)C1 [Compound 65, (R)-2-(5-chloro-1H-pyrrolo[2,3-b]pyridin-3-yl)-5-fluoro-N-((1-(3-fluorophenylsulfonyl)piperidin-3-yl)methyl)pyrimidin-4-amine]
IC50 [1, 5]: < 5 µM
EC50 [2, 6]: < 5 µM
